pIC50: −log10 of the molar value.
Key:
Beta-secretase 1 [1] = biological target: T1, Beta-secretase 1 (Homo sapiens, UniProt P56817); assay: Inhibition of BACE1 (unknown origin) at 25 uM relative to control
Cholinesterase [2] = biological target: T2, Cholinesterase (Homo sapiens, UniProt P06276); assay: Inhibition of BuChE (unknown origin) at 25 uM relative to control
Beta-secretase 1 [3] = biological target: T1, Beta-secretase 1; assay: Inhibition of BACE1 (unknown origin) expressed in baculovirus-expression system using Rh-EVNLDAEFK-Quencher substrate after 90 mins by FRET assay
Cholinesterase [4] = biological target: T2, Cholinesterase; assay: Inhibition of BuChE (unknown origin) by Ellman's method
Cholinesterase [5] = biological target: T2, Cholinesterase; assay: Inhibition of BuChE (unknown origin) after 2 mins
Cholinesterase [6] = biological target: T2, Cholinesterase; assay: Inhibition of human BuChE at 100 uM using acetylthiocholine iodide as substrate after 10 secs measured at 30 s intervals for two minutes by Ellman's method relative to control
Acetylcholinesterase [7] = biological target: T3, Acetylcholinesterase (Electrophorus electricus, UniProt O42275); assay: Inhibition of electric eel AChE using acetylthiocholine iodide as substrate preincubated for 3 mins followed by substrate addition
T3 sequence (O42275 whole entry): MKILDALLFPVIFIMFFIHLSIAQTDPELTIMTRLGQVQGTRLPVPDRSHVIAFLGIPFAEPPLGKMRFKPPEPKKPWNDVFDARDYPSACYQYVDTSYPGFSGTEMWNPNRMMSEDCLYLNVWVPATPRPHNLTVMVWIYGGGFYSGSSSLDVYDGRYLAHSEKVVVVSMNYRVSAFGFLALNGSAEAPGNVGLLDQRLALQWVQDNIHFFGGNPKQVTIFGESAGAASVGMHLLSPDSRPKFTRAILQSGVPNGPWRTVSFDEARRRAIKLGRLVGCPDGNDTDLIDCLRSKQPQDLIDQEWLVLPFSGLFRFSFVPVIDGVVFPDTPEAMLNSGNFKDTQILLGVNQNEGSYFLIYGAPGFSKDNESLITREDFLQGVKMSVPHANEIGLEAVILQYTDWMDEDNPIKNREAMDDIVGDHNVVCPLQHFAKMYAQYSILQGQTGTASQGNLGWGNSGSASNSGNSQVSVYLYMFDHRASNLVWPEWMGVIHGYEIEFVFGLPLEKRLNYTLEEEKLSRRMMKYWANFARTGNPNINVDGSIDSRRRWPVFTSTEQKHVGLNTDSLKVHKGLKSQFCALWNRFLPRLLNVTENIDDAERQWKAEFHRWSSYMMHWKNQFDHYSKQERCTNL

HCT-116 = assay: Cytotoxicity against human HCT116 cells after 18 hrs by MTT assay; assay type: functional, cell-based; settings: HCT-116, 18 h
Cholinesterase [8] = biological target: T2, Cholinesterase
Description: Inhibition of BuChE (unknown origin) using butyrylthiocholine chloride as substrate preincubated for 15 mins followed by substrate addition measured after 30 mins by Ellman's method

[9] = biological target: T4, Amyloid-beta precursor protein (Homo sapiens, UniProt P05067); assay: Inhibition of amyloid beta (1 to 42) (unknown origin) self aggregation relative to control; settings: concentration not given here
T4 sequence (P05067 whole entry): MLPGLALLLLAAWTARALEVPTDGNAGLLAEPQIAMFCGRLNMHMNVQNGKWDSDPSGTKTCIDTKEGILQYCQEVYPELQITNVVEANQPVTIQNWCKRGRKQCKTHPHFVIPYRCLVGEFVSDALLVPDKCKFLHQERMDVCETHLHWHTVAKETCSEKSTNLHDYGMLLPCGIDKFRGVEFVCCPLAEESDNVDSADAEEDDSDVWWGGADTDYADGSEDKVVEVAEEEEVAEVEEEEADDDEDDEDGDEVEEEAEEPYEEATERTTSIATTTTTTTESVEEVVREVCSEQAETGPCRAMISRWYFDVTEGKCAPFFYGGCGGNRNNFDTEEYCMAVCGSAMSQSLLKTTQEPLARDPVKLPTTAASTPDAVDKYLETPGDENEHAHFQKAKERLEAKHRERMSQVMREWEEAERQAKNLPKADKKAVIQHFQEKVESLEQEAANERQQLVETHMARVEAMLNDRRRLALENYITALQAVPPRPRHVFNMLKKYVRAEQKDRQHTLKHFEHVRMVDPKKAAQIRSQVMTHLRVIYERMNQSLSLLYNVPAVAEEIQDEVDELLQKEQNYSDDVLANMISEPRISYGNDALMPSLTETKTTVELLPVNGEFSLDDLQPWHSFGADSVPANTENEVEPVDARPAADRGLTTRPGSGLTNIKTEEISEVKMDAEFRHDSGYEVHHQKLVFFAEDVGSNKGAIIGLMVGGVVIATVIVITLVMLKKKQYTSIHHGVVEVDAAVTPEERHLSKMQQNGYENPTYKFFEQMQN

Acetylcholinesterase [10] = biological target: T3, Acetylcholinesterase; assay: Inhibition of electric eel AChE using acetylthiocholine iodide as substrate after 15 mins by spectrophotometric analysis
Acetylcholinesterase [11] = biological target: T3, Acetylcholinesterase
Description: Inhibition of electric eel AChE using acetylthiocholine iodide as substrate preincubated for 10 mins followed by substrate addition measured after 15 mins by Ellman's method

[12] = biological target: Cholinesterase (Equus caballus) (UniProt P81908); assay: Inhibition of equine serum BuChE using butyrylthiocholine iodide as substrate preincubated for 10 mins followed by substrate addition measured after 15 mins by Ellman's method relative to control
Cholinesterase (Equus caballus), sequence (P81908 whole entry): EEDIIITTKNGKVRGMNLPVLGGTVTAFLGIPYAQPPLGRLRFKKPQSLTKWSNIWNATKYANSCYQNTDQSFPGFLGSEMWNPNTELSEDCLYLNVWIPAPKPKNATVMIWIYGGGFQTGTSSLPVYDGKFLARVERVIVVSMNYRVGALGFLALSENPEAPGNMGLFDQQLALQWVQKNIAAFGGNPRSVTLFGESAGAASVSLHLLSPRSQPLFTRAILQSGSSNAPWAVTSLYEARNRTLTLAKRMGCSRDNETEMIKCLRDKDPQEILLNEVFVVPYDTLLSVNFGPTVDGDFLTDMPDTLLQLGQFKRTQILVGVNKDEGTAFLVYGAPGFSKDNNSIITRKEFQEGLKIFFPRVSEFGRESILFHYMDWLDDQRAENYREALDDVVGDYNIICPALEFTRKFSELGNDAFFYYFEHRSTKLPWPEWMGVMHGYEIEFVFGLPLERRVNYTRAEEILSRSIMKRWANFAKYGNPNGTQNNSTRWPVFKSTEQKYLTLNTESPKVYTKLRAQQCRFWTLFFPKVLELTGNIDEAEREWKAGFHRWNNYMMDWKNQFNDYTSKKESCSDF

Cholinesterase [13] = biological target: Cholinesterase (Equus caballus, UniProt P81908); assay: Inhibition of equine serum BuChE using butyrylthiocholine iodide as substrate preincubated for 3 mins followed by substrate addition
Cholinesterase (Equus caballus, UniProt P81908), sequence (P81908 whole entry): as above

[14] = biological target: T4, Amyloid-beta precursor protein
Cholinesterase [15] = biological target: T2, Cholinesterase; remark: listed apart in the source

T1 sequence (P56817 whole entry): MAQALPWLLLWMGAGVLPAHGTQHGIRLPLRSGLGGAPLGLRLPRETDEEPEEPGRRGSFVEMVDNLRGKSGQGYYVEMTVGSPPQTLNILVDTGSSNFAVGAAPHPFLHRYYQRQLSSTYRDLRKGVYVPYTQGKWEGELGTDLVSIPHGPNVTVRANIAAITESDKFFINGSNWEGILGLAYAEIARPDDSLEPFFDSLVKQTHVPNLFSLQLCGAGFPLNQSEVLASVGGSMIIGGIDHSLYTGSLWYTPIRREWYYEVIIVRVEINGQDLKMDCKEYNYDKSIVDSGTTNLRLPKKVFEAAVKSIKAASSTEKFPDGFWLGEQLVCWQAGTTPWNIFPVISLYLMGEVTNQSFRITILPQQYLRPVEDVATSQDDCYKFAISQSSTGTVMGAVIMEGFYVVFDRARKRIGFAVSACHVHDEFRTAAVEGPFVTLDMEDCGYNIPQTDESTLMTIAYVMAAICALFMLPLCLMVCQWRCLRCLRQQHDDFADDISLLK
T2 sequence (P06276 whole entry): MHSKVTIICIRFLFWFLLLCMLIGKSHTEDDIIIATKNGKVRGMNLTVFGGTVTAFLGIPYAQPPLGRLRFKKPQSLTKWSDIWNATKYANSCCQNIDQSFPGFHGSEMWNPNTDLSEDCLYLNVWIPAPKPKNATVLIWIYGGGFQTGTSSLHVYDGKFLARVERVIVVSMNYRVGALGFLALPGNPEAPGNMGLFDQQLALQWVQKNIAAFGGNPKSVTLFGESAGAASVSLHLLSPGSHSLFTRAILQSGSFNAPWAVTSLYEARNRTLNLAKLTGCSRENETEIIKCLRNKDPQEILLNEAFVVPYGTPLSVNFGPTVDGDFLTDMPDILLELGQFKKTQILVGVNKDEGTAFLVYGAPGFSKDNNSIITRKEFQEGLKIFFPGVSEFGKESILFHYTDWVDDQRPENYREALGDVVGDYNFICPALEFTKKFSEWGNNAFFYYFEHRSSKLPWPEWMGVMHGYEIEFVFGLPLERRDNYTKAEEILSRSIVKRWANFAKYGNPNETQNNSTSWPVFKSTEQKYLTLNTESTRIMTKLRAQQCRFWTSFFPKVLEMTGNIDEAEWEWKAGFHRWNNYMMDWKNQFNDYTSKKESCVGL

Clc1ccc(-c2cn(C[C@@H]3Cc4c([nH]c5ccccc45)CN3)nn2)cc1Cl
inhibition (Beta-secretase 1 [1]): 61.5%
inhibition (Cholinesterase [2]): 61.5%

Clc1ccc(Cn2cc(COc3ccc(/C=N/Nc4nnc(-c5ccccc5)c(-c5ccccc5)n4)cc3)nn2)cc1
pIC50 (Beta-secretase 1 [3]): 5.07

Cc1nn(CC(=O)N/N=C/c2ccc(Cl)cc2)c(=O)n1-c1ccc(C(=O)N/N=C/c2ccc(Cl)cc2)cc1
pIC50 (Cholinesterase [4]): 7.25

O=c1ccc2ccc(OCCCCCCCn3cc(CNc4c5c(nc6ccccc46)CCCC5)nn3)cc2o1
pIC50 (Cholinesterase [5]): 8.22

Cc1cc(=O)oc2cc(OCCCCCn3cc(CNc4c5c(nc6cc(Cl)ccc46)CCCC5)nn3)ccc12
pIC50 (Cholinesterase [5]): 7.57

Cc1ccccc1Cn1cc(Cn2c3ccccc3c3ccccc32)nn1
pIC50 (Cholinesterase [6]): < 4.00

O=C(NC1CCN(Cc2ccccc2)CC1)c1cc2ccc(OCc3cn(Cc4cccc(Cl)c4Cl)nn3)cc2oc1=O
pIC50 (Acetylcholinesterase [7]): 4.53 to 5.48

O=c1oc2ccccc2c2c1cnn2Cc1cn(-c2c(Cl)cc(Cl)cc2Cl)nn1
pIC50 (HCT-116): 5.22

CN(C)CCCC1(c2ccc(F)cc2)CCc2cc(-c3nnc(-c4cccc(F)c4)[nH]3)ccc21 (stereo unspecified)
pIC50 (Cholinesterase [8]): 5.02 to 5.34

CN(C)CCCC1(c2ccc(F)cc2)CCc2cc(-c3nnc(-c4ccc(F)cc4)[nH]3)ccc21 (stereo unspecified)
pIC50 (Cholinesterase [8]): 5.27

COc1cccc(Cn2cc(Cn3c4ccccc4c4ccccc43)nn2)c1
pIC50 (Cholinesterase [6]): < 4.00

COc1cc(/C=C/C(=O)CC(=O)/C=C/c2ccc(O)c(OC)c2)ccc1O
inhibition [9]: 95.1%

COc1cc(-c2nnc(-c3ccc4c(c3)CCC4(CCCN(C)C)c3ccc(F)cc3)[nH]2)ccc1O (stereo unspecified)
pIC50 (Cholinesterase [8]): 5.02 to 5.34

CN(C)CCCC1(c2ccc(F)cc2)CCc2cc(-c3nnc(-c4ccccc4F)[nH]3)ccc21 (stereo unspecified)
pIC50 (Cholinesterase [8]): 5.34

CCn1cc(-c2nnc(O)n2Cc2ccccc2)c(=O)c2cc(Cl)c(F)cc21
pIC50 (Acetylcholinesterase [10]): 2.92

O=C(NC1CCN(Cc2ccccc2)CC1)c1cc2ccc(OCc3cn(Cc4ccccc4Cl)nn3)cc2oc1=O
pIC50 (Acetylcholinesterase [7]): 4.53 to 5.48

Fc1ccccc1Cn1cc(Cn2c3ccccc3c3ccccc32)nn1
pIC50 (Cholinesterase [6]): < 4.00

CC(C)(C)c1ccc(-c2cn(C[C@@H]3Cc4c([nH]c5ccccc45)CN3)nn2)cc1
inhibition (Beta-secretase 1 [1]): 18.9%

O=C(NC1CCN(Cc2ccccc2)CC1)c1cc2ccc(OCc3cn(Cc4ccc(Cl)c(Cl)c4)nn3)cc2oc1=O
pIC50 (Acetylcholinesterase [7]): 4.53 to 5.48

CN(C)C(=O)Oc1cccc([N+](C)(C)C)c1 [NEOSTIGMINE]
pIC50 (Acetylcholinesterase [11]): 4.79

Cc1ccc(OCc2nn3c(-c4cccc(Br)c4)nnc3s2)cc1
pIC50 (Acetylcholinesterase [11]): 6.93
inhibition [12]: 50%

Cc1ccc(Cn2cc(COc3ccc4cc(C(=O)NC5CCN(Cc6ccccc6)CC5)c(=O)oc4c3)nn2)cc1C
pIC50 (Acetylcholinesterase [7]): 5.74
pIC50 (Cholinesterase [13]): < 4.00

Cc1nn(CC(=O)N/N=C/c2cccc(Br)c2)c(=O)n1-c1ccc(C(=O)N/N=C/c2cccc(Br)c2)cc1
pIC50 (Cholinesterase [4]): 7.03

CCOC(=O)C(Cc1cn(-c2ccccc2C(F)(F)F)nn1)(Cc1cn(-c2ccccc2C(F)(F)F)nn1)NC(C)=O
inhibition [9]: 96.9%
pIC50 [14]: 5.09

O=[N+]([O-])c1ccc(Cn2cc(COc3ccc(/C=N/Nc4nnc(-c5ccccc5)c(-c5ccccc5)n4)cc3)nn2)cc1
pIC50 (Beta-secretase 1 [3]): 4.94

CC1(C)Oc2cc3oc(=O)ccc3cc2CC1OC(=O)n1cc(CNC(=O)CCCCC2CCSS2)nn1 (stereo unspecified)
pIC50 (Cholinesterase [15]): 2.23

Cc1nn(CC(=O)N/N=C/c2ccccc2)c(=O)n1-c1ccc(C(=O)N/N=C/c2ccccc2)cc1
pIC50 (Cholinesterase [4]): 7.15

CN(C)CCCC1(c2ccc(F)cc2)CCc2cc(-c3nnc(-c4ccccc4I)[nH]3)ccc21 (stereo unspecified)
pIC50 (Cholinesterase [8]): 5.02 to 5.34

Oc1ccc2cc(-c3cn(C[C@@H]4Cc5c([nH]c6ccccc56)CN4)nn3)ccc2c1
inhibition (Beta-secretase 1 [1]): 30.4%

Cc1nn(CC(=O)N/N=C/c2ccc(Br)cc2)c(=O)n1-c1ccc(C(=O)N/N=C/c2ccc(Br)cc2)cc1
pIC50 (Cholinesterase [4]): 6.90

CCn1c(O)nnc1-c1cn(CC)c2ccc(C)cc2c1=O
pIC50 (Acetylcholinesterase [10]): 2.76

O=C(/C=C/c1ccc(O)c(O)c1)NCc1cn(C[C@@H]2Cc3c([nH]c4ccccc34)CN2)nn1
inhibition (Beta-secretase 1 [1]): 40%

Cc1cccc(Cn2cc(Cn3c4ccccc4c4ccccc43)nn2)c1
pIC50 (Cholinesterase [6]): < 4.00

COc1ccc(/C=N/NC(=O)Cn2nc(C)n(-c3ccc(C(=O)N/N=C/c4ccc(OC)cc4)cc3)c2=O)cc1
pIC50 (Cholinesterase [4]): 6.90 to 7.31

COc1ccc2c(c1)C/C(=C\c1ccc(-c3cn(-c4ccnc5ccccc45)nn3)cc1)C2=O
inhibition (Cholinesterase [6]): 0.2%

Cc1nn(CC(=O)N/N=C/c2ccc(Br)cc2O)c(=O)n1-c1ccc(C(=O)N/N=C/c2ccc(Br)cc2O)cc1
pIC50 (Cholinesterase [4]): 7.31

Fc1cccc(Cn2cc(Cn3c4ccccc4c4ccccc43)nn2)c1
pIC50 (Cholinesterase [6]): < 4.00

O=C(NC1CCN(Cc2ccccc2)CC1)c1cc2ccc(OCc3cn(Cc4ccccc4Br)nn3)cc2oc1=O
pIC50 (Acetylcholinesterase [7]): 4.53 to 5.48

COc1ccc2c(c1)C(=O)/C(=C/c1ccc(-c3cn(-c4ccnc5ccccc45)nn3)cc1)C2
inhibition (Cholinesterase [6]): 0%

CN(C)CCCC1(c2ccc(F)cc2)CCc2cc(-c3nnc(-c4cccc(Cl)c4)[nH]3)ccc21 (stereo unspecified)
pIC50 (Cholinesterase [8]): 5.02 to 5.34

O=C(CCCc1ccc(O)cc1)NCc1cn(C[C@@H]2Cc3c([nH]c4ccccc34)CN2)nn1
inhibition (Beta-secretase 1 [1]): 33%

O=C(NC1CCN(Cc2ccccc2)CC1)c1cc2ccc(OCc3cn(Cc4ccc(F)cc4)nn3)cc2oc1=O
pIC50 (Acetylcholinesterase [7]): 4.53 to 5.48

— ChEMBL document CHEMBL4364324, “Triazole derivatives as inhibitors of Alzheimer's disease: Current developments and structure-activity relationships” (Eur J Med Chem, 2019)
